Assay [1] in a line: Body temperature in mice. The class given is in vivo, mouse. How it is done:
The experiments were performed on male Albino Swiss mice (23-25 g) and Sprague Dawley rats (200-250 g) from Charles River, Germany as well as […]-flx-YFP mice from Jackson Labs, Bangor ME and the Hen lab, respectively. The animals were kept under standard laboratory conditions with respect to lighting (light phase 7:00-19:00) and temperature (19-21 °C). Food and water were freely available. Each experimental group consisted of eight to ten animals. All of the animals were experimentally naive and were used only once in each test. The experiments were performed during the light period (9:00-14:00 h). All of the procedures were conducted according to the guidelines of the National Institutes of Health Animal Care and Use Committee and were approved by the Ethics Committees of the Institute of Pharmacology, Polish Academy of Sciences in Krakow and the Animal Care Committee, University of Ottawa. […] Controls were treated with the appropriate diluent, which was indicated as VEH on the graphs and in the tables. […] The results were expressed as a change in body temperature with respect to the basal body temperature, which was measured at the beginning of the experiments.

Assay [2] concerns Sprague Dawley rats. Nature of the assay: Lower lip retraction (LLR) in rats. The format is in vivo, rat. Conditions: for induction of LLR (in words): given alone: 8-OH-DPAT 1 mg/kg, Zn 2 and 5 mg/kg, WAY-100635 0.1 mg/kg. How it is done: The experiments were performed on male Albino Swiss mice (23-25 g) and Sprague Dawley rats (200-250 g) from Charles River, Germany as well as […]-flx-YFP mice from Jackson Labs, Bangor ME and the Hen lab, respectively. The animals were kept under standard laboratory conditions with respect to lighting (light phase 7:00-19:00) and temperature (19-21 °C). Food and water were freely available. Each experimental group consisted of eight to ten animals. All of the animals were experimentally naive and were used only once in each test. The experiments were performed during the light period (9:00-14:00 h). All of the procedures were conducted according to the guidelines of the National Institutes of Health Animal Care and Use Committee and were approved by the Ethics Committees of the Institute of Pharmacology, Polish Academy of Sciences in Krakow and the Animal Care Committee, University of Ottawa. […] Controls were treated with the appropriate diluent, which was indicated as VEH on the graphs and in the tables. LLR was assessed according to the method described by Berendsen et al., [20]. The rats were individually placed in cages (30×25×25 cm) and were scored three times, 15, 30 and 45 min after the administration of Zn as follows: 0=lower incisors not visible, 0.5=partly visible and 1=completely visible. Zn was administered at doses of 2 and 5 mg Zn/kg (given as Zn hydroaspartate, Farmapol, Poland). The maximum total score was 3/rat. In addition, the effects of Zn and WAY-100635 (0.1 mg/kg; […] Sigma) were tested.

Assay [3] deals with Sprague Dawley rats. Nature of the assay: Forced swim test (FST) in rats. The format is in vivo, rat.
Procedure: The test was carried out according to the method described previously [10]. On day one of the experiment, the animals were individually placed in plexiglass cylinders (40 cm in height, 18 cm in diameter), containing 25 cm of water maintained at 24–25 °C for a 15-min habituation period. After the rats were removed from the water, they were again placed in their home cages. On the second day, the rats were again placed in the cylinders, and the total duration of immobility was measured for a 5-min test period. Zn (1 or 2 mg Zn/ kg, given as Zn hydroaspartate) and 8-OH-DPAT (0.1 or 0.3 mg/kg) were administered alone or jointly 30 min before the test. WAY-100635 (0.1 mg/kg) was administered 15 min before the Zn treatment.
Assay [4] deals with Sprague Dawley rats. In words: 5-HT behavioural syndrome (flat body posture, forepaw treading) in rats. The class given is in vivo, rat. Conditions: VEH + 8-OH-DPAT 5 mg/kg. How it is done: (§1) The experiments were performed on male Albino Swiss mice (23–25 g) and Sprague Dawley rats (200–250 g) from Charles River, Germany as well as TPH2-Cre-ER^T2 x flx-5-HT1A-flx-YFP mice from Jackson Labs, Bangor ME and the Hen lab, respectively. The animals were kept under standard laboratory conditions with respect to lighting (light phase 7:00–19:00) and temperature (19–21 °C). Food and water were freely available. Each experimental group consisted of eight to ten animals. All of the animals were experimentally naive and were used only once in each test. The experiments were performed during the light period (9:00–14:00 h). All of the procedures were conducted according to the guidelines of the National Institutes of Health Animal Care and Use Committee and were approved by the Ethics Committees of the Institute of Pharmacology, Polish Academy of Sciences in Krakow and the Animal Care Committee, University of Ottawa.
Zn (all doses refer to mg Zn/kg) was given as either Zn hydroaspartate (Farmapol, Poland) or Zn chloride (Sigma-Aldrich) and was dissolved in 0.9 % NaCl and administered intraperitoneally (i.p.). 8-OH-DPAT and WAY-100635 were dissolved in aqua pro-injection and were administered subcutaneously (s.c.). Controls were treated with the appropriate diluent, which was indicated as VEH on the graphs and in the tables.
The experiments were conducted according to previously published procedure, with a modification to the ranked intensity scale. Briefly, the rats were individually placed in cages (30×25×25 cm) 5 min before tested compounds were injected. Forepaw treading (FT) and flat body posture (FBP) were scored using a ranked intensity scale, where 0=absent, 1=equivocal and 2=present. The Zn (2, 5, 7.5 and 11.5 mg Zn/kg, given as a Zn hydroaspartate)-induced behavioural syndrome was scored for each animal 3, 6, 9, 12 and 15 min after the Zn treatment. Each observation session lasted for 45 s. The maximum score, which was summed over 5 observation periods, was 10 for each symptom/rat. The effect of Zn on the behavioural syndrome induced by 8-OH-DPAT (5 mg/kg) was scored using the same scale. Zn was administered 60 min before 8-OH-DPAT, and the animals were scored 3, 6, 9, 12 and 15 min after the 8-OH-DPAT treatment.

Assay [5] can be described thus: Body temperature in rats. The format is in vivo, rat. Conditions: 8-OH-DPAT 5 mg/kg, vs saline group. How it is done: as §1, with “Ottawa. […]” for “Ottawa.”
The effects of Zn (2, 5, 7.5 and 11.5 mg Zn/kg for rats and 2 and 5 mg/kg for mice, given as a Zn hydroaspartate), 8-OH-DPAT (5 mg/kg) and WAY-100635 (0.1mg/kg) on rectal body temperature were recorded 30 and 60 min after their acute administration. The results were expressed as a change in body temperature with respect to the basal body temperature, which was measured at the beginning of the experiments.

The target of assay [6] is T1, human 5-HT1AR stably expressed in HEK293 cells (Homo sapiens, UniProt P08908).
T1 construct: The full-length human 5HTR1A complementary DNA (cDNA); membranes prepared from the cells
T1 sequence (P08908 1-422): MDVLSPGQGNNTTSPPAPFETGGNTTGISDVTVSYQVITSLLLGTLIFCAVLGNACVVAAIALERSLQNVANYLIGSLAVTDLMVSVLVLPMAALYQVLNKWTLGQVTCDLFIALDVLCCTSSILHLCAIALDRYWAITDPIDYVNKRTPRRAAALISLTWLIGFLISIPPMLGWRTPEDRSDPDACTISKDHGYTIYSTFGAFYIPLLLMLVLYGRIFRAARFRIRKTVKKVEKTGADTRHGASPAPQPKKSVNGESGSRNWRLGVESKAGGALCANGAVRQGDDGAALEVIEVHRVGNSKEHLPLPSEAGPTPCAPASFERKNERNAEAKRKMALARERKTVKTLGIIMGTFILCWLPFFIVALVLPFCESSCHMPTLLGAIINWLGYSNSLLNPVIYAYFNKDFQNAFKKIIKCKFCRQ
In words: Saturation binding of [3H]-8-OH-DPAT in the absence and presence of Zn. Conditions: saturation binding. How it is done:
The full-length human 5HTR1A complementary DNA (cDNA), which was cloned into the mammalian expression vector pcDNA3.1(+), was obtained from the Missouri S&T cDNA Resource Center (www.cdna.org). The receptor cDNA was stably transfected into human embryonic kidney cells (HEK293, ATCC) with the use of Lipofectamine 2000 (Invitrogen).
Cell pellets were thawed and homogenized in 20 volumes of 50 mM Tris–HCl buffer (pH 7.7) containing 0.1 mM EDTA and 10 mM MgCl2, using an Ultra Turrax tissue homogenizer. The pellets were then centrifuged twice at 35,000g for 20 min at 4 °C, with incubation for 15 min at 37 °C in between centrifugations. Membranes were aliquoted in tubes. Membrane protein concentrations were determined using the Pierce™ Coomassie (Bradford) Protein Assay Kit, with bovine serum albumin (BSA) as a standard.
The incubation buffer consisted of 50 mM Tris–HCl (pH 7.7), 10 mM MgCl2, 10 mM pargyline and 0.1 % ascorbic acid. Radioligand binding assays were performed by incubating 30 μg of protein of the membrane suspension in 96-well microtitre plates for 60 min at room temperature with shaking, in a total volume of 200 μl. The binding reactions were stopped by filtration through GF/C Unifilter plates using a harvester (PerkinElmer). The plate filters were dried, and 20 μl of Ultima Gold MV (PerkinElmer) was added. Radioactivity was measured using a MicroBeta TriLux counter (PerkinElmer).
All experiments were performed in triplicate, and the results were obtained from at least three independent experiments. The data are expressed as the mean±S.D. (standard deviation). The experimental data were analysed using GraphPad Prism 5.1 for Windows (GraphPad Software, San Diego California USA, www.graphpad.com).

From publication PMC5104769, “Concentration-Dependent Dual Mode of Zn Action at Serotonin 5-HT1A Receptors: In Vitro and In Vivo Studies” (Molecular neurobiology, 2015) come the findings set out here.

With `COc1ccccc1N1CCN(CCN(C(=O)C2CCCCC2)c2ccccn2)CC1` [WAY-100635, N-[2[4-(2-methoxyphenyl)-1-piperazinyl]ethyl]-N-(2-pyridyl)cyclohexanecarboxamide, reference compound], the “effect of pretreatment on Zn-induced decrease in body temperature” value in assay [1] (WAY-100635 0.1 mg/kg s.c. 15 min before Zn) was “abolished the effect induced by Zn”. Moreover, the “Mean LLR score (B) 8-OH-DPAT 1 mg/kg” value in assay [2] (WAY 100635 0.1 mg/kg 45 min before 8-OH-DPAT 1 mg/kg) was 0.67±0.76. The “Mean LLR score (A) VEH” value in assay [2] (WAY 100635 0.1 mg/kg s.c. alone, max score 3/rat) is 0.0±0.0. Further, the “effect on LLR induced by 8-OH-DPAT (in words)” value in assay [2] (Zn 2 and 5 mg/kg or WAY-100635 0.1 mg/kg before 8-OH-DPAT 1 mg/kg) was “blocked the LLR induced by 8-OH-DPAT”. Further, the “induction of LLR (in words)” value in assay [2] is recorded as “did not evoke LLR”. Also, the “effect on Zn-induced decrease in immobility time” value in assay [3] (WAY-100635 0.1 mg/kg 15 min before Zn) is given as “antagonized the Zn-induced decrease in the immobility time”. For the same molecule, the “behaviour in the FST” value in assay [3] (WAY-100635 0.1 mg/kg given alone) is given as “did not change the behaviour of the animals”.

`CCCN(CCC)C1CCc2cccc(O)c2C1` (stereo not drawn) [8-OH-DPAT, 8-Hydroxy-2-(di-n-propylamino)tetralin, reference compound]: the “behavioural score FBP (B) 8-OH-DPAT” value in assay [4] worked out at 7.83±0.7. In addition, in assay [4], the “behavioural score FT (B) 8-OH-DPAT” value was 7.5±0.6. Further, the “change in body temperature” value in assay [1] (8-OH-DPAT 5 mg/kg, vs saline group) is recorded as “significant decrease in body temperature”; in assay [5] it was “significant decrease in body temperature”. Further, the “Mean LLR score (B) 8-OH-DPAT 1 mg/kg” value in assay [2] (VEH pretreatment + 8-OH-DPAT 1 mg/kg) was 2.25±0.46. Moreover, the “induction of LLR (in words)” value in assay [2] is “induced LLR”. In addition, the “immobility time in the FST” value in assay [3] (8-OH-DPAT 0.1 mg/kg) is reported as “not 0.1 mg/kg (p>0.05) decreased the immobility time”; in assay [3] (8-OH-DPAT 0.3 mg/kg) it was “decreased the immobility time”.

As for `CCCN(CCC)C1CCc2cccc(O)c2C1` (stereo not drawn) [[^3H]-8-OH-DPAT], the “Bmax of [3H]8-OH-DPAT” value in assay [6] (Zn2+ 0 μM) is 4.5±0.3 pM/mg prot; in assay [6] (Zn2+ 10 μM) it was 5.8±0.7 pM/mg prot; in assay [6] (Zn2+ 10 μM, listed as [^3H]8-OH-DPAT) it was 5.8±0.7 pM/mg prot; in assay [6] (Zn2+ 100 μM), 6.2±2.0 pM/mg prot; in assay [6] (Zn2+ 500 μM) it was 4.7±0.7 pM/mg prot; in assay [6] (Zn2+ 1000 μM), 4.0±0.6 pM/mg prot.
